Here are results for two molecules from patent US7001997B2, “Proteins, their production and use” (Takeda Chemical Industries, Ltd., priority 1996, dated 2006).

The target of test [1] is T1, human liver-derived metalloprotease (Homo sapiens, UniProt Q99542).
T1 sequence (Q99542 98-508): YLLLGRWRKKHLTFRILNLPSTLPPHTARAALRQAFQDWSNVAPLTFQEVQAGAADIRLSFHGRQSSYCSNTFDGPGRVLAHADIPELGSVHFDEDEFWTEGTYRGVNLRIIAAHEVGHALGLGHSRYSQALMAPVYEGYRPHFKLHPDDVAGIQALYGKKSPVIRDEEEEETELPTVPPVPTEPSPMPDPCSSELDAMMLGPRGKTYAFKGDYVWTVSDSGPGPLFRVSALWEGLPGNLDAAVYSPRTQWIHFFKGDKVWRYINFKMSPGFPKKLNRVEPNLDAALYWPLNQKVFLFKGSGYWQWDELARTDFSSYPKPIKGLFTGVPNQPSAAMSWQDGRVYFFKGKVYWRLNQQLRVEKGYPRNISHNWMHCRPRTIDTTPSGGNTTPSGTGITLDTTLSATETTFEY
Kind of test: Inhibitor screening system with fluorogenic substrate DNP-Pro-Cha-Abu-Cys(Me)-His-Ala-Lys(N-Me-Abz)-NH2. The format is biochemical. More on the design: the objective metalloprotease of about 46 kDa was eluted with buffer E (QIAexpress System); 6xHis (vector-encoded N-terminal tag of pQE30); made in house; host or cells: Escherichia coli JM109/pNHMB. The following applies: 10 μM substrate, 37° C., 16 hours, excitation 365 nm, emission 460 nm; read-out: 50% inhibitory concentration of metalloprotease activity. Here is the method: A 96-well plate (Fluoro B Plate, Dainippon Pharmaceutical) was filled in with 30 μL of buffer (0.25 M Tris-HCl (pH 8.0), 5 mM CaCl2, 100 mM NaCl, 10 μM ZnCl2) and 20 μL of the recombinant human liver-derived metalloprotease (2.4 mg/ml) obtained in Example 5. […] When actinonin (Peptide Institute), a metalloprotease inhibitor, was added at a varying concentration to this reaction mixture, it inhibited metalloprotease activity with a 50% inhibitory concentration of about 10 μM. It was, therefore, clear that this assay system can be used for the screening of inhibitors of the human liver-derived metalloprotease.

In test [2] the target is T1, human liver-derived metalloprotease. Description: PER assay of casein hydrolyzing activity in culture supernatant of COS-7 cells transfected with pTB1921. The test is classed as biochemical. More on the design: expressed in transfected cells; host or cells: COS-7. Particulars: supernatant activated with 1 mM aminophenyl-mercuric acetate, 37° C., 30 minutes. How it is done: Add aminophenyl mercuric acetate (final concentration 1 mM) to the protein of the present invention and react at 37° C. for 30 minutes. Electrophorese the reaction mixture on SDS-polyacrylamide gels (non-reducing) in accordance with PER (F. T. Lundy et al., Electrophoresis, 16, 43, 1995). Then, saturate the polyacrylamide gels with the substrate and react in the reaction medium at 37° C. for 16 hours. After the reaction, stain the gels with CBB to detect a proteolytic activity.
The pTB1921 obtained in Example 1, which had been inserted into the expression plasmied pCMV·SPORT (GIBCO/BRL), was used for expression in animal cells. The COS-7 cell line (purchased from the Institute for Fermentation, Osaka) was cultured in serum-containing DMEM and subcultured on the day before introduction of the gene. When the culture became 50% confluent, the COS-7 cells were washed with serum-free DMEM, and 2.5 ml of serum-free medium was added. […]
To the cell culture supernatant obtained in Example 2 was added aminophenyl-mercuric acetate (final concentration 1 mM) and the reaction was carried out at 37° C. for 30 minutes. The activity was then determined by the PER assay (F. T. Lundy et al., Electrophoresis, 16, 43, 1995). As a result, casein hydrolyzing activity which was not found in the mock culture supernatant was detected in the culture supernatant of COS-7 cells transfected with pTB1921.

With `CCCCC[C@H](CC(=O)NO)C(=O)N[C@H](C(=O)N1CCC[C@H]1CO)C(C)C` [actinonin], in test [1], the IC50 was roughly 10 µM. For the molecule `c1cnc2c(c1)ccc1cccnc12` [o-phenanthroline], the “inhibition of casein hydrolyzing activity” value in test [2] is on record as “inhibited”.
